The series can be described thus: Solubility of flibanserin in aqueous media. The class given is physicochemical. The source says: In acidic environment compounds such as flibanserin are usually very well water soluble whereas in neutral or basic environment these drugs can be practically insoluble. […] These physicochemical properties of basic compounds make it difficult to develop extended release dosage forms. There is a natural pH gradient from the acidity of the stomach where the pH of physiological fluids are typically around 1-2, through the weakly acidic duodenum to the virtually neutral environment of the small intestine where the pH is in the range of 5-8.

For 1 compound, solubility results are on record in patent US8545886B2, “Extended release tablet formulations of flibanserin and method for manufacturing the same” (Boehringer Ingelheim International GmbH, priority 2006, dated 2013).

Values after ≈ are worked out from the molar mass of the structure shown.

On to `O=c1[nH]c2ccccc2n1CCN1CCN(c2cccc(C(F)(F)F)c2)CC1` [flibanserin, 1,3-dihydro-1-[2-[4-[3-(trifluoromethyl)phenyl]-1-piperazinyl]ethyl]-2H-benzimidazole-2-one], for which the solubility was 2 µg/mL (≈ 0.00512 mM) (aqueous buffer, in 0.05 M phosphate buffer pH 6.8) and 6200 µg/mL (≈ 15.9 mM) (simulated gastric fluid, in 0.1 N HCl).
